The supplement of paper PMC10307832

What was measured:
Test in all cases: relative viability (nuclei count vs DMSO), 5 days (fraction); higher = more cells survive
Ispinesib + Dasatinib = compound: Cc1ccc(C(=O)N(CCCN)[C@@H](c2nc3cc(Cl)ccc3c(=O)n2Cc2ccccc2)C(C)C)cc1 [Ispinesib] + Cc1nc(Nc2ncc(C(=O)Nc3c(C)cccc3Cl)s2)cc(N2CCN(CCO)CC2)n1 [Dasatinib] (partner 0.075 µM)
Summary of the method: (§1)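 Relative viability is defined as nuclei in treated wells over nuclei in vehicle wells. Duplicate plates were run and medians reported. Lung cancer cell lines in 1536-well plates were dosed by pin tool one day after seeding, with one drug or with a fixed anchor-drug dose plus five library-drug doses (not always all listed) in √10 steps, and nuclei were counted after 5 days.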

Ispinesib + Olaparib = compound: Cc1ccc(C(=O)N(CCCN)[C@@H](c2nc3cc(Cl)ccc3c(=O)n2Cc2ccccc2)C(C)C)cc1 [Ispinesib] + O=C(c1cc(Cc2n[nH]c(=O)c3ccccc23)ccc1F)N1CCN(C(=O)C2CC2)CC1 [Olaparib] (partner 8 µM)
Summary of the method: as §1

Ispinesib + Trametinib = compound: Cc1ccc(C(=O)N(CCCN)[C@@H](c2nc3cc(Cl)ccc3c(=O)n2Cc2ccccc2)C(C)C)cc1 [Ispinesib] + CC(=O)Nc1cccc(-n2c(=O)n(C3CC3)c(=O)c3c(Nc4ccc(I)cc4F)n(C)c(=O)c(C)c32)c1 [Trametinib] (partner 0.02 µM)
Summary of the method: as §1

Linsitinib + OSI-027 = compound: C[C@]1(O)C[C@@H](c2nc(-c3ccc4ccc(-c5ccccc5)nc4c3)c3c(N)nccn32)C1 [Linsitinib] + COc1cccc2cc(-c3nc([C@H]4CC[C@H](C(=O)O)CC4)n4ncnc(N)c34)[nH]c12 [OSI-027] (partner 0.5 µM)
Summary of the method: as §1

| Cell Line | relative viability (Ispinesib + Dasatinib; first compound 0.001 µM) | relative viability (Ispinesib + Dasatinib; first compound 0.003162 µM) | relative viability (Ispinesib + Dasatinib; first compound 0.01 µM) | relative viability (Ispinesib + Dasatinib; first compound 0.03162 µM) | relative viability (Ispinesib + Dasatinib; first compound 0.1 µM) | relative viability (Ispinesib + Olaparib; first compound 0.001 µM) | relative viability (Ispinesib + Olaparib; first compound 0.003162 µM) | relative viability (Ispinesib + Olaparib; first compound 0.01 µM) | relative viability (Ispinesib + Olaparib; first compound 0.03162 µM) | relative viability (Ispinesib + Olaparib; first compound 0.1 µM) | relative viability (Ispinesib + Trametinib; first compound 0.001 µM) | relative viability (Ispinesib + Trametinib; first compound 0.003162 µM) | relative viability (Ispinesib + Trametinib; first compound 0.01 µM) | relative viability (Ispinesib + Trametinib; first compound 0.03162 µM) | relative viability (Ispinesib + Trametinib; first compound 0.1 µM) | relative viability (Linsitinib + OSI-027; first compound 0.01 µM) | relative viability (Linsitinib + OSI-027; first compound 0.03162 µM) | relative viability (Linsitinib + OSI-027; first compound 0.1 µM) | relative viability (Linsitinib + OSI-027; first compound 0.3162 µM) | relative viability (Linsitinib + OSI-027; first compound 1 µM) |
| --- | --- | --- | --- | --- | --- | --- | --- | --- | --- | --- | --- | --- | --- | --- | --- | --- | --- | --- | --- | --- |
| 201T | 0.538 | 0.599 | 0.735 | 0.56 | 0.307 | 0.859 | 0.905 | 0.958 | 0.822 | 0.79 | 0.743 | 0.75 | 0.729 | 0.692 | 0.678 | 0.808 | 0.799 | 1.01 | 0.829 | 0.342 |
| A549 |  |  |  |  |  | 0.417 | 0.276 | 0.37 | 0.194 | 0.0705 |  |  |  |  |  |  |  |  |  |  |
| A-427 | 0.668 | 0.793 | 0.817 | 0.396 | 0.161 | 0.714 | 0.784 | 0.728 | 0.696 | 0.22 | 0.721 | 0.811 | 0.745 | 0.463 | 0.226 | 0.448 | 0.432 | 0.5 |  | 0.357 |
| ABC-1 | 0.569 | 0.803 | 0.523 | 0.294 | 0.288 | 1.04 | 0.955 | 0.838 |  | 0.41 |  |  |  |  |  | 0.502 | 0.447 | 0.504 | 0.38 | 0.217 |
| BEN | 0.36 | 0.371 | 0.307 | 0.248 | 0.141 | 1.03 | 1.35 | 1.13 | 0.832 | 0.782 | 1.07 | 1.17 | 1.15 | 0.916 | 0.677 | 0.346 | 0.27 | 0.258 |  | 0.249 |
| CAL-12T | 0.376 | 0.482 | 0.338 | 0.128 | 0.188 | 0.754 | 0.791 | 0.896 | 0.768 | 0.217 | 0.353 | 0.315 | 0.28 | 0.294 | 0.215 | 0.625 | 0.688 | 0.679 | 0.351 | 0.297 |
| COR-L23 | 0.564 | 0.498 | 0.474 | 0.0917 | 0.172 | 0.31 | 0.34 | 0.308 | 0.226 | 0.138 | 0.611 | 0.565 | 0.376 | 0.103 | 0.168 | 0.626 | 0.968 | 0.804 | 0.52 | 0.509 |
| COR-L 105 | 0.462 | 0.303 | 0.31 | 0.195 | 0.238 | 0.578 | 0.667 | 0.579 | 0.411 | 0.51 | 0.466 | 0.424 | 0.426 | 0.363 | 0.377 | 0.64 | 0.578 | 0.603 | 0.596 | 0.381 |
| Calu-6 |  |  |  |  |  | 0.56 |  | 0.422 | 0.193 | 0.192 |  |  |  |  |  |  |  |  |  |  |
| ChaGo-K-1 | 0.584 | 0.605 | 0.643 | 0.668 | 0.226 | 0.399 | 0.449 | 0.431 | 0.445 | 0.382 | 0.903 | 0.999 | 1.06 | 0.992 | 0.895 | 0.613 | 0.627 | 0.573 | 0.319 | 0.522 |
| EBC-1 |  |  |  |  |  | 0.772 | 0.725 | 0.792 | 0.669 | 0.171 |  |  |  |  |  |  |  |  |  |  |
| EKVX | 0.601 | 0.59 | 0.429 | 0.605 | 0.439 | 0.83 |  | 1.05 | 0.831 | 0.317 | 0.321 |  | 0.361 | 0.603 | 0.218 | 0.706 | 0.723 | 0.687 | 0.467 | 0.607 |
| EMC-BAC-2 | 0.354 | 0.236 | 0.351 | 0.257 | 0.19 | 0.479 | 0.474 | 0.513 | 0.418 | 0.325 | 0.846 | 0.966 | 0.965 | 0.624 | 0.312 | 0.365 | 0.377 | 0.336 | 0.341 | 0.247 |
| EPLC-272H | 0.407 | 0.354 | 0.32 | 0.172 | 0.182 | 0.776 | 0.781 | 0.769 | 0.308 | 0.155 | 0.302 | 0.277 | 0.306 | 0.225 | 0.206 | 0.262 | 0.296 |  |  | 0.257 |
| H3255 | 0.316 | 0.419 | 0.357 | 0.307 | 0.244 | 0.589 | 0.597 | 0.541 | 0.46 | 0.394 | 0.621 | 0.711 | 0.622 | 0.448 | 0.328 | 0.654 | 0.682 | 0.725 | 0.467 | 0.576 |
| HARA | 0.26 | 0.258 | 0.301 | 0.293 | 0.0741 | 1.03 | 0.83 | 0.592 | 0.707 | 0.316 | 0.727 | 0.634 | 0.816 | 1.14 | 0.234 | 0.505 | 0.502 | 0.637 |  | 0.232 |
| HCC-15 | 0.711 | 0.662 | 0.604 | 0.371 | 0.21 | 0.683 | 0.759 | 0.917 | 0.831 | 0.445 | 0.262 | 0.42 | 0.422 | 0.381 | 0.296 | 0.677 | 0.677 | 0.616 |  | 0.246 |
| HCC-44 |  |  |  |  |  | 0.984 | 0.993 | 1.03 | 1.06 | 0.938 | 1.06 | 1.05 | 1.09 | 1.07 | 1.11 | 0.503 | 0.41 | 0.465 | 0.181 | 0.232 |
| HCC-78 | 0.388 | 0.542 | 0.464 | 0.348 | 0.267 | 0.876 | 0.82 | 0.887 | 0.704 | 0.59 | 1.04 | 0.869 | 1.2 | 0.493 | 0.513 | 0.377 | 0.379 | 0.31 | 0.377 | 0.347 |
